Publication PMC3313677 (Biochemistry, 2012)
Like-named read-outs stand apart in the source and are kept apart here.

Experiments:
[1] = target: Mandelate racemase (MR, EC 5.1.2.2); conditions: cited from earlier work
[2] = target: N197A MR; conditions: read-out: Ki (competitive inhibition constant); cited from earlier work
[3] = target: E317Q MR; conditions: read-out: Ki (competitive inhibition constant); cited from earlier work
[4] = target: T24S MR (Pseudomonas putida, UniProt P11444, T24S); assay: CD-based competitive inhibition of MR variant T24S; type: biochemical
Sequence of T24S MR (P11444 whole entry T24S): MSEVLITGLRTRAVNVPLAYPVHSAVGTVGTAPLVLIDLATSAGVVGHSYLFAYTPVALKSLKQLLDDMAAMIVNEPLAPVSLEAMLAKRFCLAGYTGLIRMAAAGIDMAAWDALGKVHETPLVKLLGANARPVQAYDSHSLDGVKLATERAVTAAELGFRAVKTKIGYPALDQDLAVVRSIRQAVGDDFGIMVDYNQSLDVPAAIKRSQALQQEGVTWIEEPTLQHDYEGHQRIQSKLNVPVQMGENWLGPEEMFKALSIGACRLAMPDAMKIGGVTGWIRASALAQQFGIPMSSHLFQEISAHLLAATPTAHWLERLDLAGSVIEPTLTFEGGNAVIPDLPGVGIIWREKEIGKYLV

[5] = target: V26F MR (Pseudomonas putida, UniProt P11444, V26F); assay: CD-based competitive inhibition of MR variant V26F; type: biochemical
Sequence of V26F MR (P11444 whole entry V26F): as the sequence (P11444 whole entry T24S) above, with S24T, V26F counted along it

[6] = target: V26A MR (Pseudomonas putida, UniProt P11444, V26A); assay: CD-based competitive inhibition of MR variant V26A; type: biochemical
Sequence of V26A MR (P11444 whole entry V26A): as the sequence (P11444 whole entry T24S) above, with S24T, V26A counted along it

[7] = target: V22F MR (Pseudomonas putida, UniProt P11444, V22F); assay: CD-based competitive inhibition of MR variant V22F; type: biochemical
Sequence of V22F MR (P11444 whole entry V22F): as the sequence (P11444 whole entry T24S) above, with V22F, S24T counted along it

[8] = target: Y54F MR (Pseudomonas putida, UniProt P11444, Y54F); assay: CD-based competitive inhibition of MR variant Y54F; type: biochemical
Sequence of Y54F MR (P11444 whole entry Y54F): as the sequence (P11444 whole entry T24S) above, with S24T, Y54F counted along it

[9] = target: F52W/Y54W MR; conditions: read-out: Ki (competitive inhibition constant); cited from earlier work
[10] = target: V22I MR (Pseudomonas putida, UniProt P11444, V22I); assay: CD-based competitive inhibition of MR variant V22I; type: biochemical
Sequence of V22I MR (P11444 whole entry V22I): as the sequence (P11444 whole entry T24S) above, with V22I, S24T counted along it

[11] = target: V22A MR (Pseudomonas putida, UniProt P11444, V22A); assay: CD-based competitive inhibition of MR variant V22A; type: biochemical
Sequence of V22A MR (P11444 whole entry V22A): as the sequence (P11444 whole entry T24S) above, with V22A, S24T counted along it

[12] = target: A25V MR (Pseudomonas putida, UniProt P11444, A25V); assay: CD-based competitive inhibition of MR variant A25V; type: biochemical
Sequence of A25V MR (P11444 whole entry A25V): as the sequence (P11444 whole entry T24S) above, with S24T, A25V counted along it

[13] = target: V26A/V29L MR (Pseudomonas putida, UniProt P11444, V26A/V29L); assay: CD-based competitive inhibition of MR variant V26A/V29L; type: biochemical
Sequence of V26A/V29L MR (P11444 whole entry V26A/V29L): as the sequence (P11444 whole entry T24S) above, with S24T, V26A, V29L counted along it

[14] = target: V26L MR (Pseudomonas putida, UniProt P11444, V26L); assay: CD-based competitive inhibition of MR variant V26L; type: biochemical
Sequence of V26L MR (P11444 whole entry V26L): as the sequence (P11444 whole entry T24S) above, with S24T, V26L counted along it

[15] = target: F52W MR; conditions: read-out: Ki (competitive inhibition constant); cited from earlier work
[16] = target: V29F MR (Pseudomonas putida, UniProt P11444, V29F); assay: CD-based competitive inhibition of MR variant V29F; type: biochemical
Sequence of V29F MR (P11444 whole entry V29F): as the sequence (P11444 whole entry T24S) above, with S24T, V29F counted along it

[17] = target: V29D MR; conditions: read-out: Ki (competitive inhibition constant); cited from earlier work
[18] = target: Y54L MR (Pseudomonas putida, UniProt P11444, Y54L); assay: CD-based competitive inhibition of MR variant Y54L; type: biochemical
Sequence of Y54L MR (P11444 whole entry Y54L): as the sequence (P11444 whole entry T24S) above, with S24T, Y54L counted along it

[19] = target: V29A MR (Pseudomonas putida, UniProt P11444, V29A); assay: CD-based competitive inhibition of MR variant V29A; type: biochemical
Sequence of V29A MR (P11444 whole entry V29A): as the sequence (P11444 whole entry T24S) above, with S24T, V29A counted along it

[20] = reversible competitive inhibitor of MR

C[C@@](O)(C(=O)O)c1ccccc1 [(S)-atrolactate]
Ki ([1]; ground state analogue, MR): 150 µM

O=C(NO)c1ccccc1 [benzohydroxamate]
Ki [2]: 216 ± 6 µM
Ki [3]: 760 ± 31 µM
Ki [4]: 209 ± 9.9 µM
Ki [5]: 462 ± 31.7 µM
Ki [6]: 69.3 ± 2.2 µM
Ki [7]: 229 ± 86.6 µM
Ki [8]: 13.1 ± 1.1 µM
Ki [9]: 640 ± 190 µM
Ki [10]: 29.2 ± 5.2 µM
Ki [11]: 1.08 ± 0.46 mM
Ki [1, 20]: 9.3 µM
Ki [12]: 611 ± 12.2 µM
Ki [13]: 79.2 ± 3.6 µM
Ki [14]: 440 ± 26.9 µM
Ki [15]: 63 ± 10 µM
Ki [16]: 40.1 ± 0.2 µM
Ki [17]: 2.9 ± 0.7 mM
Ki [18]: 25.7 ± 1.9 µM
Ki [19]: 179 ± 23.3 µM

O=CN(O)c1ccccc1 [N-hydroxyformanilide]
Ki [1, 20]: 2.8 µM

CC(=O)NO [acetohydroxamate]
Ki ([1]; MR): 27000 µM

O=NN(O)c1ccccc1 [cupferron]
Ki [1, 20]: 2.7 µM

O=P(O)(O)C(O)c1ccccc1 (stereo not drawn) [α-hydroxybenzylphosphonate]
Ki [1, 20]: 4.7 µM
